Test results reported in patent publication US7015250B2, “Methods and pharmaceutical preparations for normalizing blood pressure with (-)-hydroxycitric acid” (Glykon Technologies Group, LLC, priority 2000, dated 2006).
Values joined by “and” are separate entries in the source; they are usually repeats but may differ in a detail not shown here. Identical values can stand only once.

Assays:
[1] = serum NEFA, insulin and corticosterone in rats on a moderate fat diet given potassium hydroxycitrate for 60 days; format: in vivo; settings: student's T test
Text: Therefore, animal tests were scrutinized to determine if variations in serum levels of non-esterified fatty acids (NEFA), insulin and corticosterone could explain the novel findings. Ten-week old male rats were placed on a moderate fat diet (30% of calories, which is a high-fat diet for rats) for 60 days. These rats were fed water or potassium hydroxycitrate (0.33 mmols/kg) twice daily by gastric intubation, but were otherwise provided with food and water ad libitum. Five animals were used as controls and two different formulas of potassium hydroxycitrate were provided to five animals each. The differences between control (5 data points) and active (10 data points) were then analyzed according to the student's T test. […] Both of these factors could play a role in the clinical findings of lowered blood pressure in hypertensive individuals. Elevated insulin levels are known to be associated with hypertension. Glucocorticoids, similarly, are associated with hypertension through a variety of mechanisms, including sodium retention.

[2] = treated rats, diets mostly of glucose (e.g. 70% glucose); Sullivan and Triscari 1976; cited from earlier work
[3] = pilot open clinical weight loss trial with a pouch delivery form of potassium (−)-hydroxycitrate in extremely obese patients (blood pressure, weight, tolerability); format: in vivo, human; parameters: Starting Blood Pressure: unit not given here
Text: Blood pressure data was acquired from a multi-week pilot open clinical weight loss trial with extremely obese patients which was undertaken to gauge the effects of a pouch delivery form of a potassium salt of (−)-hydroxycitrate under the normal circumstances faced in clinical practice with this patient population. Sixteen patients were enrolled, three of whom were diabetics on medications or insulin. Several others were suspected of suffering from insulin resistance. The patients ingested 3–4 grams of HCA per day in two divided doses. Aside from being informed that they must eat a carbohydrate-containing meal within one hour of taking the HCA and that they should avoid eating late in the day, they were not instructed to follow any special diet or exercise plan outside their normal habits and no caloric restriction was imposed. This particular form of potassium (−)-hydroxycitrate delivery typically was mixed into water or juice and consumed at mid-morning and mid-afternoon. The delivery was a water-soluble immediate release form. […] A number of patients continued on the program for 6 weeks. […] Several other patients experienced good appetite suppression, yet also complained of episodic tiredness at the beginning of the program, a sign of low blood sugar. Two patients subsequently were placed on phentermine. […] The average weight loss over the 3 week period for these 14 patients was approximately 3.1 pounds per person per week. The clinical decision was made that potassium (−)-hydroxycitrate in an immediate release format can exercise a strong hypoglycemic effect in diabetics and that it appears to influence blood sugar levels in protodiabetics, as well. At therapeutically effective dosages, HCA probably should be used with diabetic populations only under a physician's care.
Along with the hypoglycemic effect of the potassium hydroxycitrate, a quite surprising finding was that blood pressure levels in eight patients began to normalize rapidly with this treatment. Elevated blood pressure is common with obese and insulin-resistant patients, and therefore it was unremarkable that in this patient population (ages ranging roughly 30 to 60) that almost one half suffered from hypertension. Following are the readings for the eight hypertensive patients. Many of these patients had been advised to lower salt intake and to increase potassium and magnesium intake. […]

Row | Structure (SMILES) | corticosterone levels, HCA groups versus control ([1]; pooled active (10) vs control (5), one-tailed P 0.0013, two-tailed P 0.0026) | insulin levels, HCA groups versus control ([1]; pooled active (10) vs control (5), one-tailed P 0.0306, two-tailed P 0.0612) | NEFA, HCA groups versus control ([1]; pooled active (10 data points) vs control (5)) | plasma levels of glucose, insulin, or free fatty acids relative to controls [2] | hypotensive effect ([3]; as little as 3 grams of HCA per day in divided doses (5 grams of the salt), manifests over one to several weeks) | Starting Blood Pressure ([3]; baseline reading of each of the eight hypertensive, extremely obese patients before treatment) | weight loss of one patient ([3]; one patient who followed the program for 10 weeks, 3–4 grams of HCA per day) [pounds] | average weight loss ([3]; over the 3 week period, 14 patients, 3–4 grams of HCA per day, no caloric restriction) | tolerability ([3]; pre-commercial pouch preparation, patients complained of inconvenience and poor taste) | hypoglycemic reactions ([3]; two of the diagnosed diabetics on medications or insulin, 3–4 grams of HCA per day, immediate release)
1 | O=C(O)CC(O)(C(=O)O)C(O)C(=O)O (single isomer, unassigned; (-)) [HCA, (−)-Hydroxycitric acid] | very significantly lower | significantly lower | no significant difference | no significant differences |  |  |  |  |  | 
2 | O=C([O-])CC(O)(C(=O)[O-])C(O)C(=O)[O-].[K+].[K+].[K+] (stereo not drawn) [potassium hydroxycitrate, potassium (−)-hydroxycitrate] |  |  |  |  | significant hypotensive effect | 150/88 and 178/100 and 130/98 and 150/98 and 140/78 and 180/88 and 120/80 and 170/100 | 32 | approximately 3.1 pounds per person per week | no other issues of tolerability | severe hypoglycemic reactions
